# From US12485191B2, “Radiopharmaceuticals and methods of use thereof” (BOARD OF REGENTS OF THE UNIVERSITY OF NEBRASKA, priority 2017, dated 2025)
# Marks after values point to notes of the source that are not given here.
# Experiments:
# [1] = molecular target: T1, cathepsin B (human Liver) (Homo sapiens, UniProt P07858); assay: Inhibition constant (Ki) of the compounds to cathepsin B; assay type: biochemical
# T1 construct: from tissue; host or cells: human liver
# Protocol: Determination of the Km and Vmax of Cathepsin B for Z-Arg-Arg-AMC
# The solution of cathepsin B (human Liver) (50 μL, 2 nM) in assay buffer used above was mixed with 50 μL of solution of substrate Z-Arg-Arg-AMC in the assay buffer at different concentrations ([S]) (25 μM, 50 μM, 100 μM, 500 μM and 1 mM). The mixture was incubated at 37° C. and the fluorescence of the liberated aminomethylcoumarin at 460 nM using 355 nm excitation was measured at predetermined time points (0, 2, 4, 6, 8, and 10 minutes). The fluorescence intensity was plotted versus time and the reaction rates (v0) were calculated as the slope of the trend lines obtained by liner regression. Km and maximum reaction rate (Vmax-obs) was determined from the equation v0=Vmax[S]/(Km+[S]) and solved by nonlinear regression using GraphPad Prism 5. All measurements were in biological triplicate.
# Determination of the Inhibition Constant (Ki) of the Compounds to Cathepsin B
# The cathepsin B (human Liver) in assay buffer (25 μL) was mixed with the conjugate (25 μL) in 96-well plate. After the solution was mixed, the Z-Arg-Arg-AMC in assay buffer (50 μL) was added to the well, yielding a final cathepsin B concentration of 1 nM, conjugate concentration ([C]) of 15 nM or 5 μM, and substrate concentration ([S]) of 25 μM, 50 μM, 100 μM, 500 μM and 1 mM. The mixture was incubated at 37° C. and the fluorescence of the liberated aminomethylcoumarin at 460 nM using 355 nm excitation was measured at predetermined time points (0, 2, 4, 6, 8, and 10 minutes). The fluorescence intensity was plotted versus time with observed reaction rates (v0-obs) calculated as the slope of the trend lines obtained by liner regression. The observed rate constant (Kobs) and observed maximum reaction rate (Vmax-obs) was determined from the equation v0-obs=Vmax-obs [S]/(Kobs+[S]) and solved by nonlinear regression using GraphPad Prism 5. The Ki was calculated from the equation Kobs=Km (1+[C]/Ki). All measurements were in biological triplicate.
# HT-29 cells [2] = assay: Intracellular trapping of the radioconjugates in living HT-29 cells (GPC, SDS-PAGE); assay type: cell-based, human; details: live HT-29 cells, GPC and SDS-PAGE
# Protocol: Intracellular Trapping of the Radioconjugates in Living HT-29 Cells
# To the HT-29 cells (1×10^6/well) seeded in 6-well plates was added the radioconjugates (0.74 MBq, 20 μCi) in 1 mL of cell culture medium. The cells were incubated at 37° C. for 4 hours and the medium was removed by vacuum followed washing with PBS (2×2 mL). The cells (˜3×10^6) were trypsinized and combined in microcentrifuge. The RIPA buffer (100 μL) containing Halttmprotease inhibitor (100×, 1 μL) was added to the cell pellet and vigorously vortexed for 1 minute. The suspension was incubated on ice for 15 minutes and centrifuged to remove the pellet. The supernatant (80 μL) was equally divided into two portions. The first portion (40 μL) was directly analyzed by radioactive-GPC with a flow rate of 0.6 mL/minute (40% ACN in PBS containing 0.1% sodium azide). The second portion (40 μL) of the cell lysate was mixed with Novex Tris-Glycine SDS sample buffer (2×) (40 μL) and incubated for another 15 minutes. The mixture (30 μL) was loaded onto a Novex 16% tris-glycine gel and analyzed by SDS-PAGE at 110 V for 90 minutes. The autoradiograph of the SDS-PAGE was performed as described above.
# HT-29 xenograft tumors [3] = assay: Tissue adduct formation of the radioconjugates (SDS-PAGE, centrifugal filtration); assay type: in vivo, mice; details: autoradiographic SDS-PAGE, 24 hours post-injection
# Protocol: The radioconjugates (800 μCi/mouse) were intravenously injected to the tumor bearing mice. The mice were sacrificed and the tumor, liver, and kidney were excised at 24 and 72 hours post-injection time points. The tumor and organs were homogenized in RIPA buffer (50 mg/100 μL) containing Halt™ protease inhibitor (100×, 1 μL) on ice and centrifuged to remove the pellet. An aliquot (20 μL) of the supernatant of the sample at 24 hours was mixed with Novex Tris-Glycine SDS sample buffer (2×, 20 μL) and incubated for further 10 minutes. The mixtures (20 μL) were loaded onto a Novex 16% tris-glycine gel and analyzed by SDS-PAGE at 110 V for 90 minutes. The autoradiograph of the SDS-PAGE was performed according to the same method in section 3.8.1. On the other hand, the aliquots (100 μL) of supernatants of all the tumor samples at 24 hours and 72 hours were individually centrifuged with Pierce™ protein concentrators (MWCO=10 kDa) to separate the low molecular weight radioactivity. The radioactivity in each fraction was quantified using a gamma counter to calculate the percentage of the cysteine proteases trapped radioconjugate in the total counts.
# HT-29 cells [4] = assay: HT-29 cell efflux study; assay type: cell-based, human; details: at 24 hours
# Protocol: The HT-29 Cell Efflux Studies
# The ^177Lu radioconjugate was added to a sterilized 1.5 mL microcentrifuge tube containing HT-29 cells ˜1×10^6) suspended in 300 μL of cell culture medium, yielding a final radioactivity concentration of 100,000 cpm/100 μL, and was incubated for 2 hours at 37° C. After the removal of the culture medium, the cells were washed with fresh medium (5×500 μL) followed by the addition of 500 μL of fresh medium for the efflux assay. At 0, 1, 2, 4, 8, and 24 hour time interval, fresh medium (500 μL) was added to the tube to replace the old medium which was harvested for quantitative analysis of the effluxed radioactivity using a gamma counter. The cells were lysed with a 10% aqueous SDS solution at 24 hour to quantify the remaining internalized radioactivity. The effluxed fraction is expressed as a percentage of the total radioactivity added to the tube, which is the sum of the effluxed and internalized fractions obtained from the study.
# HT-29 xenograft tumors [5] = assay: Biodistribution study in HT-29 xenograft mouse model; assay type: in vivo, mice; details: HT-29 xenograft, by 24 hours
# Protocol: Female SCID mice (5 weeks of age) received subcutaneous injections of HT-29 cells (5×10^6) suspended in Matrigel® into the flanks. When the tumor size reached 80 mm^3 (two weeks after injection), the mice were randomized into three groups and intravenously injected with 10 μCi (0.37 MBq) of the purified ^177Lu labeled conjugates via tail vein. The mice were sacrificed and the tissues were excised at 4, 24, and 72 hours post-injection time points. The blood, tumor, and excised tissues were weighed. The radioactivity for each sample was measured using a gamma counter. The percentage injected dose per gram (% ID/g) and the radioactivity ratios between tumor and non-targeted tissues were calculated.
# [6] = Distribution coefficient (Log D7.4) of the conjugates; assay type: physicochemical; details: determined by radiometric analysis; 177Lu-labeled conjugate
# Protocol: Distribution Coefficient (Log D7.4) of the Conjugates The distribution coefficient was determined for each ^177Lu-labeled conjugate. In a 1.5 mL centrifuge tube, 0.5 mL of 1-octanol was added to 0.5 mL of PBS (pH 7.4) containing the radiolabeled peptide (500,000 cpm). The solution was vigorously vortexed for 2 minutes at room temperature and subsequently centrifuged to yield two immiscible layers. The radioactivity of the aliquots (100 μL) taken from each layer were quantified by the gamma counter and the Log D7.4 for each conjugates was calculated.
# HT-29 xenograft tumors [7] = tested on: HT-29 xenograft tumors; design: species or system mice; details: mouse
# Protocol: Evaluation of Cysteine Proteases Trapping of the Cy 5-Labeled Conjugates
# The Cy 5-labeled conjugates (40 nmol) were intravenously injected to the tumor bearing mice. The mice were sacrificed at 24 post-injection time points, and the heart, lung, liver, spleen, pancreas, kidney, intestine, brain, and tumor were excised and imaged using an IVIS spectrum system. The tumor and organs were homogenized in RIPA buffer (50 mg/100 μL) containing Halt™ protease inhibitor (100×, 1 μL) on ice and centrifuged to remove the pellet. An aliquot (18 μL) of the supernatant of the sample was added in NuPAGE® sample reducing reagent (10×, 2 μL) and denatured at 80° C. for 2 minutes. The sample was mixed with Novex Tris-Glycine S DS sample buffer (2×, 20 μL) and incubated for further 10 minutes. The mixtures (20 μL) were loaded onto a Novex 16% tris-glycine gel and analyzed by SDS-PAGE at 110 V for 90 minutes, followed by electro transferring onto PVDF membranes. The PVDF membranes were blocked by animal-free blocking buffer for 1 hour at room temperature and then were incubated with Cathepsin B (D1C7Y) XP® Rabbit mAb at 4° C. for overnight. Membranes was then incubated with Goat anti-Rabbit IgG (H+L) secondary antibody at room temperature for 1 hour and visualized using Typhoon FLA 9500.
# CatL = CatL (Homo sapiens, UniProt P07711); assay: CatL inhibition constant; assay type: biochemical
# CatL, sequence (P07711 114-333): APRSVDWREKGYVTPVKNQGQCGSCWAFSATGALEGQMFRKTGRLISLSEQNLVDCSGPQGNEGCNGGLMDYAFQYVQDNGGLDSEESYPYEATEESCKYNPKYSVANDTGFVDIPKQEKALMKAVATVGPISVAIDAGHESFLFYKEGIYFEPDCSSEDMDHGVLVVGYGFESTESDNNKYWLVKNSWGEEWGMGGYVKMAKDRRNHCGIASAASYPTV
# GRPR = GRPR (Homo sapiens, UniProt P30550); assay: GRPR affinity of GRPR-targeted agents; assay type: binding
# GRPR, sequence (P30550 whole entry): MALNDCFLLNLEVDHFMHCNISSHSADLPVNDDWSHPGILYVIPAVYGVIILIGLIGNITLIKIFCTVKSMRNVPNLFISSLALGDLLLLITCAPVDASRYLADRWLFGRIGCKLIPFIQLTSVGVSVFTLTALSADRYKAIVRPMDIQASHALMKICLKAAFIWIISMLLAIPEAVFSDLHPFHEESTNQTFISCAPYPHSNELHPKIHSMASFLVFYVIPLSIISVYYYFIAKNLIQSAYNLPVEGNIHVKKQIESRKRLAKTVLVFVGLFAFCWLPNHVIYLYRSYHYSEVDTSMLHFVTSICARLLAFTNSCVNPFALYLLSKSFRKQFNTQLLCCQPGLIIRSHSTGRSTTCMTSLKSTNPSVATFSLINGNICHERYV
# CatB = CatB (Homo sapiens, UniProt P07858); assay: CatB inhibition of GRPR-targeted agents; assay type: biochemical
# Protocol: The Inhibition of Cathepsin B Activity by the Conjugates The phosphate buffer (0.1 M, pH=5.8) containing EDTA (1 mM), DTT (2.7 mM), and Brij®35 (0.03%) was prepared before the assay. […] The solution of cathepsin B (human Liver) in assay buffer (50 μL, 0.544 nM) was added to the mixture which was further incubated at 37° C. for 20 minutes. The fluorescence of the liberated aminomethylcoumarin at 460 nM using 355 nm excitation was measured and the IC50 of the cathepsin B inhibition versus the samples without the inhibitor was determined by nonlinear regression using GraphPad Prism 5.
# PC-3 tumor = details: mouse, in vivo
smiles,measurement,setting,value
Cc1cc(O)cc(C)c1C[C@H](NC(=O)[C@@H]1CCCN1C(=O)[C@H](CCCNC(=N)N)NC(=O)[C@H](CCCNC(=N)N)N(C)C(=O)[C@@H]1CCCN1C(=O)[C@H](CCCCN)NC(=O)[C@@H](CO)NC(=O)[C@@H](CO)NC(=O)[C@@H](CO)NC(=O)[C@H](Cc1cn(CC(=O)N[C@H](CO)C(=O)N[C@H](CO)C(=O)N[C@H](CO)C(=O)NCC(=O)NCCCC[C@H](NC(=O)[C@H](Cc2ccccc2)NC(=O)OCc2ccccc2)C(=O)NCCc2ccccc2)nn1)NC(=O)CN1CCN(CC(=O)O)CCN(CC(=O)O)CCN(CC(=O)O)CC1)C(=O)N[C@H](C(=O)N[C@@H](CC(C)C)C(=O)O)C(C)(C)C [Compound 3b],CatB K1,[1],ni
same,Ki and inhibition IC50 to CatB (in words),[1],did not demonstrate any inhibition
same,intracellular adduct formation (in words),HT-29 cells [2],no adduct formation
same,in vivo adduct formation (in words),HT-29 xenograft tumors [3],no signs of adduct formation
same,efflux,HT-29 cells [4],69%
same,decrease in tumor retention,HT-29 xenograft tumors [5],40%
same,logD7.4,[6],−2.01 ± 0.06^b
Cc1cc(C)c(C(=O)OCC(=O)[C@H](CCCCNC(=O)CNC(=O)[C@@H](CO)NC(=O)[C@@H](CO)NC(=O)[C@@H](CO)NC(=O)Cn2cc(C[C@H](NC(=O)CCCCC[N+]3=C(/C=C/C=C/C=C4/N(C)c5ccccc5C4(C)C)C(C)(C)c4ccccc43)C(=O)N[C@H](CO)C(=O)N[C@H](CO)C(=O)N[C@H](CO)C(=O)N[C@@H](CCCCN)C(=O)N3CCC[C@H]3C(=O)N(C)[C@@H](CCCNC(=N)N)C(=O)N[C@@H](CCCNC(=N)N)C(=O)N3CCC[C@H]3C(=O)N[C@@H](Cc3c(C)cc(O)cc3C)C(=O)N[C@H](C(=O)N[C@@H](CC(C)C)C(=O)O)C(C)(C)C)nn2)NC(=O)[C@H](Cc2ccccc2)NC(=O)OCc2ccccc2)c(C)c1 [Compound 4a],tumor retention by ex vivo imaging (in words),HT-29 xenograft tumors [7],greater than its counterpart 4b
Cc1cc(O)cc(C)c1C[C@H](NC(=O)[C@@H]1CCCN1C(=O)[C@H](CCCNC(=N)N)NC(=O)[C@H](CCCNC(=N)N)N(C)C(=O)[C@@H]1CCCN1C(=O)[C@H](CCCCN)NC(=O)[C@@H](CO)NC(=O)[C@@H](CO)NC(=O)[C@@H](CO)NC(=O)[C@H](Cc1cn(CCNC(=O)[C@H](CCCNC(=N)N)NC(=O)[C@H](CC(C)C)NC(=O)CCC(=O)O)nn1)NC(=O)CN1CCN(CC(=O)O)CCN(CC(=O)O)CCN(CC(=O)O)CC1)C(=O)N[C@H](C(=O)N[C@@H](CC(C)C)C(=O)O)C(C)(C)C [Ec],CatB Ki,[1]; Table 3,ni^b
same,CatL Ki,CatL,ni^b
"CSCC[C@H](NC(=O)[C@H](CC(C)C)NC(=O)[C@H](Cc1c[nH]cn1)NC(=O)CNC(=O)[C@@H](NC(=O)[C@H](C)NC(=O)[C@H](Cc1c[nH]c2ccccc12)NC(=O)[C@H](CCC(N)=O)NC(=O)CCOCCOCCOCCOCCNC(=O)[C@H](Cc1cn(CCNC(=O)[C@H](CCCNC(=N)N)NC(=O)[C@H](CC(C)C)NC(=O)CCC(=O)O)nn1)NC(=O)CN1CCN(CC(=O)O)CCN(CC(=O)O)CCN(CC(=O)O)CC1)C(C)C)C(N)=O [^177Lu-C-AG, metal not drawn]",IC50,GRPR,0.0165 ± 0.0033 µM
same,IC50,CatB,> 200 µM
same,tumor retention,PC-3 tumor,32%
